“And” between values parts separate entries of the source, which are not always exact repeats. Identical values can stand only once. Bounds are passed on as bounds.

The test concerns 429239-143-T-J1-PDC complex spheroid viability. Kind of test: Anticancer human tumor 429239-143-T-J1-PDC patient-derived small cell lung carcinoma cell line growth inhibition [POLQ]. Particulars: for viability, T/C: stronger effect = lower value. Here is the method: Multicellular complex tumor spheroid response to Polymerase (POL) inhibitors (novobiocin, ART-558, RP6685) in combination with a variety of drugs and investigational agents in selected tumor cell lines
The POL inhibitors (novobiocin, ART-558, and RP6685) were evaluated both individually and in combination with standard of care and investigational anticancer small molecules within a complex spheroid model of solid tumors. . Complex spheroids include a stromal component modeled by human endothelial cells (HUVEC) and fibroblasts modeled by human mesenchymal stem cells (MSCs). The concentration ranges selected for each drug and investigational agent were based upon clinically achievable concentrations if the clinical Cmax of the agent was known.
Compounds. The drugs and investigational agents: novobiocin (NSC847541), ART-558 (NSC835418), RP-6685 (NSC848927), peposertib (NSC802822), ceralasertib (NSC780249), elimusertib (NSC800525), camonsertib (NSC841442), AZD-1390 (NSC803789), olaparib (NSC753686), talazoparib (NSC767125), rucaparib (NSC756644), sotorasib (NSC818433), MRTX-1133 (NSC836407), SN-38 (NSC673596), topotecan (NSC609699), epotoside (NSC141540), doxorubicin (NSC123127), gemcitabine (NSC613327), 5-fluorouracil (NSC19893), paclitaxel (NSC125973), vemurafenib (NSC761431), MSA-2 (NSC828583), SN-011 (NSC837082), adavosertib (NSC754352), prexasertib (NSC758257), carboplatin (NSC241240) and oxaliplatin (NSC266046), were obtained from the National Cancer Institute (NCI) Developmental Therapeutics Program Chemical Repository (21). The FDA-approved anticancer drug set is available from the Developmental Therapeutics Program at https://dtp.cancer.gov/organization/dscb/obtaining/. […] The stock solutions were prepared in dimethyl sulfoxide (DMSO, Sigma-Aldrich, St. Louis, MO, cat. D2650), except for the platinum compounds which were prepared in saline (Quality Biological, Gaithersburg, MD, cat. 114-055-101), at 800-fold the tested concentration and stored at -70 degrees C prior to their use. All drugs and investigational agents were tested over a range starting from a high concentration at or near the clinical Cmax and decreasing in half-log increments. If the clinical Cmax for an agent had not been determined, the highest concentration tested was 10 microM, except for SN-38, which was tested at a high concentration of 1 microM.
Cell Culture. All cells were maintained in an incubator at 37 degrees C and 5% CO2 with 95% humidity. The PDC lines were cultured according to standard operating procedures established by the NCI PDMR (https://pdmr.cancer.gov). Table 3 of the manuscript, lists the cell lines along with the number of the three cell types plated to form the mct-spheroids and media for tumor cell growth. After thawing, all PDC lines, except 997537-175-T-J1-PDC and 415267-285-R-J2-PDC, were cultured in Matrigel-coated flasks prepared with a working solution of 1X Ham's F-12 nutrient mix, without supplementation (Thermo Fisher Scientific, cat. 11765054), 100 U/mL penicillin-streptomycin (Thermo Fisher Scientific, cat. 15140122), and 2.5% Matrigel (Corning Inc., Corning, NY, cat. 354248) for the first three passages. The two PDC lines 997537-175-T-J1-PDC and 415267-285-R-J2-PDC were cultured on uncoated flasks. The 857933-349-R-J2-PDC line was cultured in 6C/Colon 1B media containing advanced DMEM/F-12 (Thermo Fisher Scientific, cat. 12634028), 10 mM HEPES (Thermo Fisher Scientific, cat. 15630080), 1X GlutaMAX supplement (Thermo Fisher Scientific, cat. 35050061), 0.1 mg/mL primocin (InvivoGen, San Diego, CA, cat. ant-pm-2), 10% defined fetal bovine serum, heat inactivated (HyClone Laboratories Inc., Logan, UT, cat. SH30070.03HI), 50% L-WRN conditioned media (ATCC, cat. CRL-3276), 1.25 mM N-Acetyl-L-cysteine (Sigma-Aldrich, cat. A9165), 10 mM nicotinamide (Sigma-Aldrich, cat. N0636), 1X B-27 supplement (Thermo Fisher Scientific, cat. 17504044), 1X N-2 supplement (Thermo Fisher Scientific, cat. […]

The mark [1] stands for this setting: compound alone, run of 01/19/2024.
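Also: luminescence signal used as surrogate measure of viable cells; spheroids exposed to compounds for seven days before readout.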
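For viability, T/C in this document: 100% = DMSO vehicle control viability as luminescence relative to vehicle.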

As usually defined, the viability, T/C is the ratio of treated to control. Usually IC50 stands for the concentration needed to halve the response being measured. For `COc1cc(C2c3cc4c(cc3C(OC3OC5COC(C)OC5C(O)C3O)C3COC(=O)C23)OCO4)cc(OC)c1O` (centres undefined), the viability, T/C is 99.3% and 97.8% and 98.3% (compound 0.0316 µM); 83.6% and 97.1% and 85.7% (compound 0.1 µM); 67.2% and 76.3% and 51.2% (compound 0.316 µM); 21% and 16.1% and 18% (compound 1 µM); 18.4% and 7.9% and 16% (compound 3.16 µM); 16.8% and 7.28% and 16.6% (compound 10 µM). The IC50 (curve of compound) is 483 nM and 523 nM and 313 nM.
For the compound `COc1ccc([C@@H](O)c2cc(-c3ncnc4cc(N5CCOCC5)ccc34)c(F)cc2Cl)nn1`, the viability, T/C was 94.3% and 105% and 106% (compound 0.0316 µM); 96% and 95.6% and 99.2% (compound 0.1 µM); 93.8% and 92.8% and 87.8% (compound 0.316 µM); 87.6% and 96.2% and 92.5% (compound 1 µM); 55.4% and 93.5% and 53.1% (compound 3.16 µM). The IC50 (curve of compound) was 3610 nM and 9970 nM and 3520 nM.
With `COc1cccc(OCCCN)c1-c1cc(Nc2cnc(C#N)cn2)n[nH]1`, the viability, T/C was 92% and 99.1% and 90.2% (compound 0.00316 µM); 79.7% and 103% and 100% (compound 0.01 µM); 82.9% and 83.9% and 89.2% (compound 0.0316 µM); 39.7% and 73.7% and 77.4% (compound 0.1 µM); 31% and 56.7% and 51.6% (compound 0.316 µM); 23% and 27% and 41.3% (compound 1 µM). Besides, the IC50 (curve of compound) is 76.2 nM and 390 nM and 384 nM.
Turning to `COc1cccc2c1C(=O)c1c(O)c3c(c(O)c1C2=O)CC(O)(C(=O)CO)CC3OC1CC(N)C(O)C(C)O1` (centres undefined), the viability, T/C reads like this: (compound 0.0316 µM) 64.3% and 87.3% and 71.1%; (compound 0.1 µM) 12.8% and 42.3% and 14.2%; (compound 0.316 µM) 11.6% and 7.66% and 13.1%; (compound 1 µM) 0.3% and 0.77% and 0.76%; (compound 3.16 µM) 0.21% and 0.16% and 0.18%; (compound 10 µM) 0.24% and 0.16% and 0.14%. Besides, the IC50 (curve of compound) is 44.1 nM and 82.1 nM and 49.7 nM.
As to `Cc1cccc(N(C)C(=O)C2C(O)CCN2c2nc(C)cc(C(F)(F)F)c2C#N)c1` (centres undefined), the viability, T/C reads like this: (compound 0.0316 µM) 103% [middle of 13 runs]; (compound 0.1 µM) 102% [middle of 13 runs]; (compound 0.316 µM) 98% [middle of 13 runs]; (compound 1 µM) 100% [middle of 13 runs]; (compound 3.16 µM) 104% [middle of 13 runs]; (compound 10 µM) 106% [middle of 13 runs]. Further, the IC50 reads like this: (compound alone, run of 01/08/2024) > 10000 nM; under setting [1], > 10000 nM.
Regarding `Cn1ncnc1[C@H]1c2n[nH]c(=O)c3cc(F)cc(c23)N[C@@H]1c1ccc(F)cc1`, the viability, T/C (compound 0.000316 µM) was 101% and 105% and 93.1%; the viability, T/C (compound 0.001 µM) was 96.8% and 94.6% and 88.7%; the viability, T/C (compound 0.00316 µM) is 78% and 94.1% and 76.6%; the viability, T/C (compound 0.01 µM) is 71% and 86% and 60.1%; the viability, T/C (compound 0.0316 µM) was 40.5% and 78.3% and 47.5%; the viability, T/C (compound 0.1 µM) is 30.4% and 63.1% and 29%. In addition, for the setting “curve of compound”, the IC50 was 23.4 nM and > 100 nM.
`Nc1ccc(C#CCN(C(=O)Cc2ncc(C(F)(F)F)cc2C(F)(F)F)c2ccc(F)cc2)nn1`: the viability, T/C runs as follows: (compound 0.0316 µM) 100% [middle of 13 runs]; (compound 0.1 µM) 103% [middle of 13 runs]; (compound 0.316 µM) 99.6% [middle of 13 runs]; (compound 1 µM) 101% [middle of 13 runs]; (compound 10 µM) 107% [middle of 13 runs]. Also, the IC50 under setting [1] was > 10000 nM.
For the compound `Nc1ccn(C2OC(CO)C(O)C2(F)F)c(=O)n1` (centres undefined), the viability, T/C (compound 0.0316 µM) was 20% and 68.1% and 17.7%; the viability, T/C (compound 0.1 µM) was 18.2% and 6.89% and 16%; the viability, T/C (compound 0.316 µM) was 17.5% and 6.81% and 18.4%; the viability, T/C (compound 1 µM) was 19.9% and 6.79% and 18.6%; the viability, T/C (compound 3.16 µM) was 16.3% and 6.33% and 14.9%; the viability, T/C (compound 10 µM) was 15.8% and 5.46% and 15%. The IC50 (curve of compound) is < 31.6 nM and 44.4 nM.
As to `O=C(c1cc(Cc2n[nH]c(=O)c3ccccc23)ccc1F)N1CCN(C(=O)C2CC2)CC1`, the viability, T/C runs as follows: (compound 0.0316 µM) 95.1% and 91.7% and 93.1%; (compound 0.1 µM) 82.3% and 93.9% and 102%; (compound 0.316 µM) 68.2% and 72.8% and 97.3%; (compound 1 µM) 69.8% and 78% and 84.5%; (compound 3.16 µM) 30.4% and 29.6% and 69.6%; (compound 10 µM) 16.1% and 16.5% and 9.45%. Besides, the IC50 (curve of compound) was 1590 nM and 1930 nM and 4520 nM.
As to `O=c1[nH]cc(F)c(=O)[nH]1`, the viability, T/C is, setting by setting: (compound 0.0316 µM) 89.3% and 95% and 104%; (compound 0.1 µM) 103% and 106% and 96%; (compound 0.316 µM) 92.2% and 102% and 97.8%; (compound 1 µM) 84% and 89.3% and 89.6%; (compound 3.16 µM) 70.4% and 45.9% and 66.5%; (compound 10 µM) 45.4% and 32.2% and 40.9%. Also, for the setting “curve of compound”, the IC50 is 8200 nM and 2830 nM and 6660 nM.

The values above are taken from PubChem BioAssay AID1963845 (Molecular Pharmacology Branch, DTP, NCI, 2024).
